Measurements reported in patent EP0490193A1, “Complex of an actif enantiomer of ibuprofen with cyclodextrin” (priority 1990, dated 1992).

Tests used:
[1] = Ratten; cited from earlier work
[2] = nach Ibuprofengaben; cited from earlier work
[3] = synoviale Flüssigkeit, Patienten mit Arthritis; cited from earlier work
[4] = Dissolution properties in water at 37° C (Tabelle I); format: physicochemical; conditions: Wasser
[5] = In vitro diffusion study, concentration in the receptor cell, buffer pH 1,2, 37° C (Tabelle II); format: in vitro ADME; conditions: Pufferlösung pH = 1,2, 37° C
From the text: Um die gute biologische Verfügbarkeit des S-(+)-Ibuprofens aus der komplexierten Form zu testen, wurden in vitro-Diffusionsversuche durchgeführt. Die Diffusion des S-(+)-Ibuprofens aus dem β-Cyclodextrin-Komplex war schneller, die S-(+)-Ibuprofen-Menge in der Rezeptorzelle betrug das 1,6fache bei pH = 1,2 nach 6 Stunden im Vergleich zum freien Arzneimittel (Tabelle II).

Row | Compound | Absorptionsgrad [1] | aus dem Urin zurückgewonnen [2] | Konzentrationsverhältnis S zu R [3] | gelöstes Ibuprofen ([4]; Zeit 1 min) | gelöstes Ibuprofen ([4]; Zeit 5 min) | gelöstes Ibuprofen ([4]; Zeit 10 min) | gelöstes Ibuprofen ([4]; Zeit 15 min) | gelöstes Ibuprofen ([4]; Zeit 30 min) | gelöstes Ibuprofen ([4]; Zeit 60 min) | Konzentration von S-(+)-Ibuprofen in der Rezeptorzelle ([5]; Zeit 90 min) | Konzentration von S-(+)-Ibuprofen in der Rezeptorzelle ([5]; Zeit 120 min) | Konzentration von S-(+)-Ibuprofen in der Rezeptorzelle ([5]; Zeit 180 min) | Konzentration von S-(+)-Ibuprofen in der Rezeptorzelle ([5]; Zeit 240 min) | Konzentration von S-(+)-Ibuprofen in der Rezeptorzelle ([5]; Zeit 360 min)
1 | CC(C)Cc1ccc(C(C)C(=O)O)cc1 (racemic) [Ibuprofen] | gleich | 5,0% |  |  |  |  |  |  |  |  |  |  |  | 
2 | CC(C)Cc1ccc([C@H](C)C(=O)O)cc1 [S-(+)-Ibuprofen, S-(+)-2-(-4-Isobutylphenyl)propionsäure] |  |  | 2,1 | 0,04 mg/ml | 0,10 mg/ml | 0,12 mg/ml | 0,13 mg/ml | 0,12 mg/ml | 0,12 mg/ml | 0,022 mg/ml | 0,027 mg/ml | 0,038 mg/ml | 0,047 mg/ml | 0,061 mg/ml
